Measured values: US6525001B1, “Substituted pyrimidine and pyridine herbicides” (Mid-American Commercialization Corporation, priority 1997, dated 2003)

Assays:
Format in all cases: in vivo
Set-up in all cases: key: 0 is no effect; 10 is complete control
rice (Oryza sativa) = assay: Test B flood test
In short: (§1)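 Each value is a visual injury score relative to controls, with 10 meaning complete control and 0 no effect. Evaluation took place twelve to sixteen days after the 2-leaf-stage plants were treated and kept in the greenhouse.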

[1] = system: bamyardgrass (Echinochloa crus-galli); assay: Test B flood test
In short: as §1

[2] = system: duck salad (Heteranthera limosa); assay: Test B flood test
In short: as §1

[3] = system: smallflower flatsedge (Cyperus difformis); assay: Test B flood test
In short: as §1

[4] = system: bedstraw (Galium aparine); assay: Test B pre-/postemergence; conditions: for Bedstraw plant response rating: Preemergence
In short: (§2)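 Response scores run from 0, meaning no effect, to 10, meaning complete control, assigned by eye relative to controls twelve to sixteen days after spraying. Treatment was both preemergence on planted seed and postemergence on plants at the 1- to 4-leaf stage.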

corn (Zea mays) = assay: Test B pre-/postemergence; conditions: for Corn plant response rating: Preemergence
In short: as §2

wild oat (Avena fatua) = assay: Test B pre-/postemergence
In short: as §2

[5] = system: crabgrass (Digitaria sanguinalis); assay: Test B pre-/postemergence; conditions: for Crabgrass plant response rating: Preemergence
In short: as §2

[6] = system: pigweed (Amaranthus retroflexus); assay: Test B pre-/postemergence
In short: as §2

[7] = system: wheat (Triticum aestivum); assay: Test B pre-/postemergence
In short: as §2

[8] = system: velvetleaf (Abutilon theophrasti); assay: Test B pre-/postemergence
In short: as §2

[9] = system: blackgrass (Alopecurus myosuroides); assay: Test B pre-/postemergence; conditions: for Blackgrass plant response rating: Preemergence
In short: as §2

[10] = system: momingglory (Ipomoea hederacea); assay: Test B pre-/postemergence
In short: as §2

soybean (Glycine max) = assay: Test B pre-/postemergence
In short: as §2

rape (Brassica napus) = assay: Test B pre-/postemergence
In short: as §2

[11] = system: broadleaf signalgrass (Brachiaria decumbens); assay: Test B pre-/postemergence; conditions: for B. signalgrass plant response rating: Preemergence
In short: as §2

[12] = system: cocklebur (Xanthium strumarium); assay: Test B pre-/postemergence; conditions: for Cocklebur plant response rating: Preemergence
In short: as §2

[13] = system: giant foxtail (Setaria faberii); assay: Test B pre-/postemergence
In short: as §2

[14] = system: sugar beet (Beta vulgaris); assay: Test B pre-/postemergence
In short: as §2

[15] = system: purple nutsedge (Cyperus rotundus); assay: Test B pre-/postemergence
In short: as §2

[16] = Rate 62 g/ha, Postemergence (flood test)
[17] = Rate 125 g/ha, Postemergence section (flood test species)
[18] = Rate 250 g/ha, Postemergence (flood test species)
[19] = Rate 125 g/ha, Postemergence, flood test
[20] = Rate 250 g/ha, Postemergence (so in the source)

Cc1cnc(-c2ccccc2F)nc1Cc1cccc(C(F)(F)F)c1 [Compound 26]
Plant response rating, Rice (rice (Oryza sativa); [16]): 0
Rice plant response rating (rice (Oryza sativa); [17]): 0
Plant response rating, Rice (rice (Oryza sativa); [18]): 0
Plant response rating, Barnyardgrass [1, 16]: 0
Plant response rating, Barnyardgrass [1, 19]: 0
Plant response rating, Barnyardgrass [1, 18]: 2
Plant response rating, Ducksalad [2, 16]: 0
Plant response rating, Ducksalad [2, 19]: 0
Plant response rating, Ducksalad [2, 18]: 0
Plant response rating, S. Flatsedge [3, 16]: 0
S. Flatsedge plant response rating [3, 17]: 1
Plant response rating, S. Flatsedge [3, 18]: 2
Plant response rating, Bedstraw ([4]; Rate 62 g/ha, Postemergence): 1
Bedstraw plant response rating ([4]; Rate 62 g/ha): 0
Plant response rating, Bedstraw ([4]; Rate 125 g/ha, Postemergence): 3
Bedstraw plant response rating ([4]; Rate 125 g/ha): 0
Plant response rating, Bedstraw ([4]; Rate 250 g/ha, Postemergence): 6
Plant response rating, Bedstraw [4, 20]: 0
Plant response rating, Corn (corn (Zea mays); Rate 62 g/ha, Postemergence): 1
Corn plant response rating (corn (Zea mays); Rate 62 g/ha): 0
Plant response rating, Corn (corn (Zea mays); Rate 125 g/ha, Postemergence): 1
Corn plant response rating (corn (Zea mays); Rate 125 g/ha): 0
Plant response rating, Corn (corn (Zea mays); Rate 250 g/ha, Postemergence): 1
Plant response rating, Corn (corn (Zea mays); [20]): 0
Plant response rating, Wild oats (wild oat (Avena fatua); Rate 62 g/ha, Postemergence): 0
Wild oats plant response rating (wild oat (Avena fatua); Rate 62 g/ha, Preemergence): 0
Wild oats plant response rating (wild oat (Avena fatua); Rate 125 g/ha, Postemergence): 0
Plant response rating, Wild oats (wild oat (Avena fatua); Rate 125 g/ha, Preemergence): 0
Plant response rating, Wild oats (wild oat (Avena fatua); Rate 250 g/ha, Postemergence): 0
Plant response rating, Wild oats (wild oat (Avena fatua); [20]): 0
Plant response rating, Crabgrass ([5]; Rate 62 g/ha, Postemergence): 1
Crabgrass plant response rating ([5]; Rate 62 g/ha): 0
Plant response rating, Crabgrass ([5]; Rate 125 g/ha, Postemergence): 1
Crabgrass plant response rating ([5]; Rate 125 g/ha): 0
Plant response rating, Crabgrass ([5]; Rate 250 g/ha, Postemergence): 1
Plant response rating, Crabgrass [5, 20]: 1
Plant response rating, Redroot pigweed ([6]; Rate 62 g/ha, Postemergence): 6
Redroot pigweed plant response rating ([6]; Rate 62 g/ha, Preemergence): 0
Redroot pigweed plant response rating ([6]; Rate 125 g/ha, Postemergence): 6
Redroot pigweed plant response rating ([6]; Rate 125 g/ha, Preemergence): 0
Plant response rating, Redroot pigweed ([6]; Rate 250 g/ha, Postemergence): 8
Plant response rating, Redroot pigweed [6, 20]: 4
Plant response rating, Wheat ([7]; Rate 62 g/ha, Postemergence): 0
Wheat plant response rating ([7]; Rate 62 g/ha, Preemergence): 0
Wheat plant response rating ([7]; Rate 125 g/ha, Postemergence): 0
Plant response rating, Wheat ([7]; Rate 125 g/ha, Preemergence): 0
Plant response rating, Wheat ([7]; Rate 250 g/ha, Postemergence): 0
Plant response rating, Wheat [7, 20]: 0
Plant response rating, Velvetleaf ([8]; Rate 62 g/ha, Postemergence): 1
Velvetleaf plant response rating ([8]; Rate 62 g/ha, Preemergence): 0
Velvetleaf plant response rating ([8]; Rate 125 g/ha, Postemergence): 1
Plant response rating, Velvetleaf ([8]; Rate 125 g/ha, Preemergence): 0
Plant response rating, Velvetleaf ([8]; Rate 250 g/ha, Postemergence): 2
Plant response rating, Velvetleaf [8, 20]: 0
Plant response rating, Blackgrass ([9]; Rate 62 g/ha, Postemergence): 0
Blackgrass plant response rating ([9]; Rate 62 g/ha): 0
Plant response rating, Blackgrass ([9]; Rate 125 g/ha, Postemergence): 1
Blackgrass plant response rating ([9]; Rate 125 g/ha): 0
Plant response rating, Blackgrass ([9]; Rate 250 g/ha, Postemergence): 1
Plant response rating, Blackgrass [9, 20]: 0
Plant response rating, Morningglory ([10]; Rate 62 g/ha, Postemergence): 3
Morningglory plant response rating ([10]; Rate 62 g/ha, Preemergence): 0
Morningglory plant response rating ([10]; Rate 125 g/ha, Postemergence): 3
Morningglory plant response rating ([10]; Rate 125 g/ha, Preemergence): 0
Plant response rating, Morningglory ([10]; Rate 250 g/ha, Postemergence): 3
Plant response rating, Morningglory [10, 20]: 0
Plant response rating, Soybean (soybean (Glycine max); Rate 62 g/ha, Postemergence): 3
Soybean plant response rating (soybean (Glycine max); Rate 62 g/ha, Preemergence): 0
Soybean plant response rating (soybean (Glycine max); Rate 125 g/ha, Postemergence): 3
Plant response rating, Soybean (soybean (Glycine max); Rate 125 g/ha, Preemergence): 0
Plant response rating, Soybean (soybean (Glycine max); Rate 250 g/ha, Postemergence): 5
Plant response rating, Soybean (soybean (Glycine max); [20]): 0
Plant response rating, Rape (rape (Brassica napus); Rate 62 g/ha, Postemergence): 3
Rape plant response rating (rape (Brassica napus); Rate 62 g/ha, Preemergence): 0
Rape plant response rating (rape (Brassica napus); Rate 125 g/ha, Postemergence): 6
Rape plant response rating (rape (Brassica napus); Rate 125 g/ha, Preemergence): 0
Plant response rating, Rape (rape (Brassica napus); Rate 250 g/ha, Postemergence): 6
Plant response rating, Rape (rape (Brassica napus); [20]): 0
Plant response rating, B. signalgrass ([11]; Rate 62 g/ha, Postemergence): 1
B. signalgrass plant response rating ([11]; Rate 62 g/ha): 0
Plant response rating, B. signalgrass ([11]; Rate 125 g/ha, Postemergence): 1
B. signalgrass plant response rating ([11]; Rate 125 g/ha): 0
Plant response rating, B. signalgrass ([11]; Rate 250 g/ha, Postemergence): 2
Plant response rating, B. signalgrass ([11]; Rate 250 g/ha, Postemergence as printed in head r139 (second section for compounds 26-50)): 1
Plant response rating, Cocklebur ([12]; Rate 62 g/ha, Postemergence): 2
Cocklebur plant response rating ([12]; Rate 62 g/ha): 0
Plant response rating, Cocklebur ([12]; Rate 125 g/ha, Postemergence): 2
Cocklebur plant response rating ([12]; Rate 125 g/ha): 0
Plant response rating, Cocklebur ([12]; Rate 250 g/ha, Postemergence): 3
Plant response rating, Cocklebur [12, 20]: 0
Plant response rating, Giant foxtail ([13]; Rate 62 g/ha, Postemergence): 1
Giant foxtail plant response rating ([13]; Rate 62 g/ha, Preemergence): 0
Giant foxtail plant response rating ([13]; Rate 125 g/ha, Postemergence): 1
Giant foxtail plant response rating ([13]; Rate 125 g/ha, Preemergence): 1
Plant response rating, Giant foxtail ([13]; Rate 250 g/ha, Postemergence): 1
Plant response rating, Giant foxtail [13, 20]: 1
Plant response rating, Sugarbeets ([14]; Rate 62 g/ha, Postemergence): 3
Sugarbeets plant response rating ([14]; Rate 62 g/ha, Preemergence): 0
Sugarbeets plant response rating ([14]; Rate 125 g/ha, Postemergence): 8
Plant response rating, Sugarbeets ([14]; Rate 125 g/ha, Preemergence): 0
Plant response rating, Sugarbeets ([14]; Rate 250 g/ha, Postemergence): 8
Plant response rating, Sugarbeets [14, 20]: 0
Plant response rating, Nutsedge ([15]; Rate 62 g/ha, Postemergence): 0
Nutsedge plant response rating ([15]; Rate 62 g/ha, Preemergence): 0
Nutsedge plant response rating ([15]; Rate 125 g/ha, Postemergence): 0
Nutsedge plant response rating ([15]; Rate 125 g/ha, Preemergence): 0
